Earlier results on 5 compounds are cited in patent publication US8431374B2, “Methods for the economical production of biofuel from biomass” (Gevo, Inc., priority 2007, dated 2013).

Molecules are shown by their SMILES.

The test system of one data set is Klyveromyces marxianus. The conditions noted are these: in binary combination (Ballesteros 2004).
For data set [1] the following is noted: logarithm of the octanol:water partition coefficient.

For the compound `CC(C)O` [2-propanol], where the note is “20° C., given in words”, the Solubility in water entry was “miscible”.

As to `COc1cc(C=O)ccc1O` [Vanillin, vanillin], the “reduction in both cell growth and fermentation” value in the data set with Klyveromyces marxianus is on record as 90%.

A word on the log P: it is the decadic logarithm of the partition coefficient of the neutral form, usually between octanol and water. Take `CCC(C)O` (centres unmarked) [2-butanol]: in data set [1], the “log P” value was 0.6.

`CC(C)CO` [isobutanol]: in data set [1], the “log P” value is 0.79.

As to `CCCCCCCCO` [1-octanol], the solubility limit (octanol, two-phase system (Chen, Q. 1995)) was less than 1100 µg/mL.
